Experimental data: paper PMC3578829, “A Small Molecule (Pluripotin) as a Tool for Studying Cancer Stem Cell Biology: Proof of Concept” (PLoS ONE, 2013)
“Also recorded” adds a separate entry of the source.

How the values were obtained:
PKC = conditions: cited from earlier work
COLO 205 = assay: Soft agar cloning assay; assay type: cell-based; conditions: 1.25 µM SL0101 for 24 hrs prior to cloning, evaluated 7 days later, all plating densities
Protocol: The soft agar colony formation assay has been previously described. In brief, for each treatment condition, triplicate 35 mm^2 dishes were coated with a 1 ml base layer containing 0.7% agarose (Seaplaque: FMC Corp., Rockland, ME). On day 0, cells were dissociated, washed once in growth medium, and subcultured by layering various cell concentrations in 0.5 ml culture medium containing 0.3% agarose onto the base coat. Culture dishes were transferred to a refrigerator (4°C) for 15 min, to room temperature for 10 min, and then to culture incubators. An upper layer of 0.5 ml culture medium was applied on day 0. Cultures were stained with MTT (1 mg/ml) for visualization and imaging at multiple time intervals (day 7 and 14). Cumulative counts of colonies (diameters, >60 µm) and cumulative volumes of CFU (diameters >120 µm) were determined with an Omnicon FAS-II (Bausch & Lomb, Rochester, NY) following calibration with an Omnicon test plate 3 and polystyrene microspheres embedded in soft agar matrix. The evaluable region of each culture dish (35 contiguous fields equivalent to 51% of the cell layer culture volume) was analyzed. Selective scoring of viable cell groups was achieved by adjustment of the instrument detection threshold to exclude images of nonstained cellular material and debris. The data was analyzed with Lotus Symphony software.

MEK = conditions: cited from earlier work
Raf = conditions: cited from earlier work

## CC(=O)O[C@@H]1[C@@H](OC(C)=O)[C@@H](O)[C@H](Oc2c(-c3ccc(O)cc3)oc3cc(O)cc(O)c3c2=O)O[C@H]1C [SL0101]
PKC
  Activity against PKC: no activity
COLO 205
  Colony formation (≥60 µm) in soft agar vs control: increased colony formation; also recorded: Statistically significant increases in colony formation
MEK
  Activity against MEK: no activity
Raf
  Activity against Raf: no activity
